This note sets out measurements from patent US7807721B2, “Compositions for inhibiting the scent tracking ability of mosquitoes in environmentally defined three dimensional spaces” (Biosensory Inc., priority 1999, dated 2010).

For the assay, the system named is adult female Aedes aegypti mosquitoes. Description: Competitive tests in triple cage, dual-port olfactometer: inhibitor + Clara Sludge (CS) human attractant port vs CS-only port. The class given is in vivo. Particulars: for % Mosquitoes Entering Treatment Port (Inhibitor Port): 3 min test; for % Mosquitoes Entering Control Port (Human Scent Port): control port 500 μL CS only; for % Mosquitoes Entering Control Port (Human Scent Port) / % Mosquitoes Remaining in Cage: 3 min. From the text: A triple cage, dual-port olfactometer, illustrated and described in detail by Posey et al. J. Med. Entomol. 35(3), 330-334 (1998), was used to study the responses of 6 to 8 day old, laboratory-reared adult female Aedes aegypti mosquitoes. This system allows mosquitoes to choose between two different stimuli. The olfactometer is constructed of clear acrylic, comprises three test chambers in a tiered configuration, has paired removable sleeves, and mosquito traps on each chamber, and is equipped with a filtered external air supply system that allows precise temperature (+/−0.5° C.) and relative humidity (+/−2%) control. Only one chamber at a time was used for the tests. Outside air was conditioned prior to entry through the choice ports, the mosquito trap, and the olfactometer by passing through a series of charcoal filters and then heated and humidified, if necessary. One hour before initiation of tests, about 75 female Ae. aegypti mosquitoes were aspirated into the olfactometer chamber and allowed to acclimatize for that one hour before testing. Test compounds were placed into test ports upwind of the traps and olfactometer chamber. A completely randomized design was used for cage position. Competitive tests were conducted. In these competitive tests, the inhibiting compound was placed into one of the ports (treatment port); the second port (check port) had the same apparatus but no chemical inhibiting compound. In these tests, inhibiting compounds were presented in glass Pyrex petri dishes (60×15 mm) that had been cleaned and sterilized in a vacuum oven and then handled only with gloves to minimize any chance of contamination and placed into one port (Treatment Port) along with another petri dish containing 500 μL of Clara Sludge (CS), a synthetic human attractant. The other port (Check Port) contained an untreated petri with no inhibiting compound and a second petri dish containing 500 μL CS. Various concentrations (25, 100, 250, 500 and 1000 μL) of the compounds were used in these tests. Each test was conducted for a period of 3 minutes; the number of mosquitoes trapped in the baited ports, and those remaining in the cage, were counted. The data are then presented as a percentage of total mosquitoes in the cage that were attracted to each port and the percentage of mosquitoes remaining in the cage (i.e., not attracted to either port).

For the compound `C=CC(C)(O)CCC=C(C)C` (stereo not shown) [Linalool, linalool], the “% Mosquitoes Entering Treatment Port (Inhibitor Port)” value (25 micro liter test compound + 500 μL CS in treatment port) was 21.98%; the “% Mosquitoes Entering Treatment Port (Inhibitor Port)” value (100 micro liter test compound + 500 μL CS in treatment port) worked out at 31.3%; the “% Mosquitoes Entering Treatment Port (Inhibitor Port)” value (250 micro liter test compound + 500 μL CS in treatment port) turned out to be 16.57%; the “% Mosquitoes Entering Treatment Port (Inhibitor Port)” value (500 micro liter test compound + 500 μL CS in treatment port) came to 16.13%; the “% Mosquitoes Entering Treatment Port (Inhibitor Port)” value (1000 micro liter test compound + 500 μL CS in treatment port) is recorded as 27.24%. The “% Mosquitoes Entering Control Port (Human Scent Port)” value (“% Mosquitoes Entering Control Port” below) (25 micro liter test compound in treatment port) is reported as 56.89%; the “% Mosquitoes Entering Control Port” value (100 micro liter test compound in treatment port) was 45.61%; the “% Mosquitoes Entering Control Port” value (250 micro liter test compound in treatment port) was determined as 47.3%; the “% Mosquitoes Entering Control Port” value (500 micro liter test compound in treatment port) is recorded as 44.56%; the “% Mosquitoes Entering Control Port” value (1000 micro liter test compound in treatment port) is 44.14%. For the same compound, the “% Mosquitoes Remaining in Cage” value was determined as 21.14% (25 micro liter test compound); 23.08% (100 micro liter test compound); 36.13% (250 micro liter test compound); 39.31% (500 micro liter test compound); 31.3% (1000 micro liter test compound). Also, where the note is “all tested concentration levels (25-1000 μL)”, the “inhibition of the ability of mosquitoes to locate the human scent (CS)” value was “greatly inhibit”.
